Where “and” joins values, the source holds several entries; their conditions need not be identical. Equal values may be shown once.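 Method: 48-hour compound exposure of cells in 96-well plates, five concentrations, linear interpolation of endpoints. GI50 marks 50% less growth. At the TGI there is no net growth.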
Key:
Assay in all cases: NCI anticancer screen, dose series, 48 h
NCI-H460 lung = test system: NCI-H460 lung
SR leukemia = test system: SR leukemia
SK-OV-3 ovarian = test system: SK-OV-3 ovarian
HT29 colon = test system: HT29 colon
HCT-116 colon = test system: HCT-116 colon
M14 melanoma = test system: M14 melanoma
SK-MEL-2 melanoma = test system: SK-MEL-2 melanoma
NCI-H226 lung = test system: NCI-H226 lung
EKVX NSCLC = test system: EKVX NSCLC
SF-539 CNS = test system: SF-539 CNS

Structure (SMILES)	TGI (NCI-H460 lung)	TGI (SR leukemia)	TGI (SK-OV-3 ovarian)	TGI (HT29 colon)	TGI (HCT-116 colon)	TGI (M14 melanoma)	TGI (SK-MEL-2 melanoma)	TGI (NCI-H226 lung)	TGI (EKVX NSCLC)	TGI (SF-539 CNS)	GI50 (SR leukemia)	GI50 (SK-OV-3 ovarian)	GI50 (HT29 colon)	GI50 (HCT-116 colon)	GI50 (M14 melanoma)	GI50 (SK-MEL-2 melanoma)	GI50 (EKVX NSCLC)	GI50 (SF-539 CNS)	GI50 (NCI-H460 lung)	GI50 (NCI-H226 lung)
CC1=Nc2ccccc2S/C1=C1/C=NC(=NC#N)N=C1C(=O)Nc1cccc(Cl)c1	> 100 µM	> 100 µM	> 100 µM	> 100 µM	> 100 µM	> 100 µM	> 100 µM	> 100 µM	> 100 µM	> 100 µM										
O=C1c2ccccc2C(=O)c2c1ccc1c3ccccc3n(-c3ccccc3)c21	63.8 µM	41.9 µM	> 100 µM	29.2 µM	47.5 µM	29.8 µM	46.8 µM	44.1 µM	56 µM	43.6 µM										
COc1cc2c3c(c4ccc(O)cc4c2cc1OC)[C@@H](O)[C@@H]1CCCN1C3	0.0155 µM	0.215 µM		0.034 µM	0.00188 µM	0.00883 µM	0.00429 µM	0.0137 µM	0.00625 µM	< 0.0114 µM										
COc1cc2c(cc1O)CCN[C@@]21CS[C@H]2c3c(OC(C)=O)c(C)c4c(c3C(COC1=O)N1C2C2NC(Cc3cc(C)c(OC)c(O)c32)[C@@H]1O)OCO4 (stereo partly specified)	< 0.01 µM		10.9 µM and 1.47 µg/mL	11.1 µM and 5.58 µg/mL	11.9 µM and 4.86 µg/mL	< 10 nM and 1.8e-07 µg/mL and 0.0045 µg/mL	< 10 nM and 0.0045 µg/mL	0.000273 ng/mL	< 10 nM and 1.3e-05 µg/mL	< 10 nM and 0.0045 µg/mL	4.5 ng/mL	4.5 ng/mL	4.5 ng/mL	4.5 ng/mL	4.5 ng/mL	4.5 ng/mL	0.000588 ng/mL	4.5 ng/mL		
O=C1CCNC/C1=C\c1ccccc1	> 100 µM	> 100 µM	> 100 µM	32.9 µM	47.4 µM	27.9 µM	> 100 µM	60.8 µM	> 100 µM	42.3 µM										
CC[C@H](C)[C@H](NC(=O)CN(C)C)C(=O)N(C)[C@H](C[C@@H](OC(C)=O)c1nc(C(=O)NC23C4C5C2C2C3C4C52C(=O)OC)cs1)C(C)C (stereo partly specified)	> 33.2 µM	> 33.2 µM	> 33.2 µM	> 33.2 µM	> 33.2 µM	> 33.2 µM	> 33.2 µM	> 33.2 µM	> 33.2 µM	> 14.1 µM	0.038 µM	4.15 µM	0.133 µM	0.201 µM	0.172 µM	0.838 µM	2.54 µM	0.462 µM	0.814 µM	> 29 µM
N#C/C(=C/c1ccc([N+](=O)[O-])o1)c1ccccc1	> 100 µM	> 100 µM	> 100 µM	> 100 µM	> 100 µM	> 100 µM	> 100 µM	> 100 µM	> 100 µM	> 100 µM										
Nc1nc(N)c(CCCCc2ccc([N+](=O)[O-])cc2)c(N)n1	> 100 µM	> 100 µM	> 100 µM	> 100 µM	> 100 µM	> 100 µM	> 100 µM	> 100 µM	> 100 µM	> 100 µM										
Cc1ccc2nc(CN(CCN(Cc3nc4ccc(C)cc4[nH]3)Cc3nc4ccc(C)cc4[nH]3)Cc3nc4ccc(C)cc4[nH]3)[nH]c2c1		3.22 µM	3.35 µM	3.2 µM		3.1 µM	3.85 µM	3.21 µM	2.75 µM	3.16 µM	1.49 µM	1.88 µM	1.77 µM		1.65 µM	2.16 µM	1.44 µM	1.77 µM		1.82 µM
COc1ccc([C@@H]2[C@@H](Cl)C(=O)N2c2cc(OC)c(OC)c(OC)c2)cc1C	14.4 µM	54.4 µM	> 100 µM	11.9 µM	11.4 µM	17.5 µM	19.6 µM	73.9 µM	> 100 µM	14.6 µM	0.0397 µM	0.0841 µM	0.0327 µM	0.0401 µM	0.0302 µM	0.0496 µM	0.0659 µM	0.0293 µM	0.313 µM	13.2 µM
COC(=O)[C@]12CC[C@@H](C)[C@H](C)[C@@H]1C1=CC[C@@H]3[C@@]4(C)C[C@@H](OC(C)=O)[C@H](OC(C)=O)[C@@](C)(COC(C)=O)[C@@H]4[C@H](O)C[C@@]3(C)[C@]1(C)CC2	16.2 µM	9.4 µM	> 100 µM	> 100 µM	> 100 µM	> 100 µM	> 100 µM	> 100 µM	> 100 µM	> 100 µM	0.465 µM	3.1 µM	0.659 µM	0.423 µM	1.28 µM	1.85 µM	2.14 µM	3.92 µM	0.505 µM	5.09 µM
COc1cc([C@H]2OC[C@@H]3C(c4cc(OC)c5c(c4)OCO5)OC[C@H]23)cc(OC)c1OC (stereo partly specified)	> 100 µM	> 100 µM	> 100 µM	> 100 µM	> 100 µM	> 100 µM	> 100 µM	> 100 µM	> 100 µM	> 100 µM										
N#Cc1ccc2c(-c3ccnc(NC4CC4)n3)c(-c3ccc(F)cc3)nn2c1	> 25 µM	> 25 µM	> 25 µM	> 25 µM	> 25 µM	> 25 µM	> 25 µM	> 25 µM	> 25 µM	> 25 µM	> 25 µM	22.4 µM	> 25 µM	> 25 µM	> 25 µM	> 25 µM	> 25 µM	> 25 µM	> 25 µM	> 25 µM
Oc1ccccc1/C=N\NC(=S)Nc1ccc(F)cc1	18.1 µM	10.5 µM	76.5 µM	25 µM	> 100 µM	3.57 µM	> 100 µM	> 32.5 µM	> 50.4 µM	32.3 µM	0.415 µM	2.11 µM	4.49 µM	0.403 µM	1.01 µM	5.96 µM	3.91 µM	2.12 µM	0.446 µM	2.76 µM
CC(=O)OC1COC(N2C(=O)C(=O)c3ccccc32)C(OC(C)=O)C1OC(C)=O (stereo unspecified)	> 100 µM	> 100 µM	> 100 µM	> 100 µM		> 100 µM	> 100 µM	> 100 µM	> 100 µM	> 100 µM										

Source: PubChem BioAssay (NCI)
